Patent publication US20110230481A2, “DERIVATIVES OF TETRABROMOBENZIMIDAZOLE, A PROCESS FOR THE PREPARATION THEREOF, A PHARMACEUTICAL COMPOSITION COMPRISING THE SAME, A METHOD OF USING THE SAME, A METHOD FOR MODULATING OR REGULATING SERINE/THREONINE KINASES, AND SERINE/THREONINE KINASES MODULATING AGENT” (SELVITA S.A., priority 2009, published 2011)
Read-outs that look alike come from different tables or passages of the source.

Key:
Experiment in all cases: Growth inhibition test (MTS)
Assay type in all cases: cell-based
[1] = system: human chronic myelogenous leukemia MEG-01 cells; conditions: MEG01; 72 hours
Description: (§1) Ten thousand cells of human chronic myelogenous leukemia MEG-01 were inoculated into each well of a 96-well microplate (manufactured by Corning Corp.) using RPMI 8226 medium (culture medium) containing 10% fetal calf serum (FCS). The same day, a dimethyl sulfoxide (DMSO) solution of each test compound prepared in a concentration of 10 mmol/L was further diluted with DMSO to the desired concentrations (0.1, 0.5, 1, 2.5, 5 and 10 micromol/L), and the diluted solution was added to each well. The individual wells were further cultured in 5% carbon dioxide at 37° C. for 72 hours. After completion of the culture, 10 μl MTS (3-(4,5-Dimethyl-2-thiazolyl)-5-(carboxymethoxyphenyl)-2-(4-sulfophenyl)-2H-tetrazolium, inner salt assay (CellTiter96® AQueous One Solution Cell Proliferation Assay, Promega) was added to each well, and culturing was performed in 5% carbon dioxide at 37° C. for 2 hours. Using a microplate spectrophotometer (Synergy 2 multi-mode microplate reader (BioTek)), the absorbance of each well was measured at 490 nm. The value for cells not incorporated with a test compound was designated as 100%. By comparing these values with the absorbance difference obtained at the well in which each test compound was added, the cell viability (% viability) after treatment with the test compound was calculated.

[2] = system: human acute promyelocytic leukemia HL-60 cells; conditions: 72 hours
Description: as §1, with “acute promyelocytic” for “chronic myelogenous”, “HL-60” for “MEG-01”

[3] = system: human myelomonocytic, biphenotypic leukemia MV4-11 cells; conditions: MV-4-11, 72 hours, read-out: Cytotoxicity in MTS assay (ED50)
Description: as §1, with “myelomonocytic, biphenotypic” for “chronic myelogenous”, “MV4-11” for “MEG-01”, “Iscove's MDM” for “RPMI 8226”

[4] = system: human prostate adenocarcinoma PC3 cells; conditions: PC-3; 72 hours
Description: as §1, with “Two” for “Ten”, “prostate adenocarcinoma PC3” for “chronic myelogenous leukemia MEG-01”, “Corp.), and” for “Corp.)”, “F12K (Ham's F12:[…]” for “RPMI”, “[…] 1:1)” for “8226”

[5] = system: human acute myeloid leukemia MOLM-13 cells; conditions: MOLM13, 72 hours, read-out: Cytotoxicity in MTS assay (ED50)
Description: as §1, with “acute myeloid” for “human chronic myelogenous”, “MOLM-13” for “MEG-01”

Row | Structure (SMILES) | Cytotoxicity in MTS assay (ED50) [1] | Cytotoxicity in MTS assay (ED50) [2] | IC50 [3] | Cytotoxicity in MTS assay (ED50) [4] | IC50 ([5]; Homo sapiens, MOLM-13) | IC50 ([3]; Homo sapiens, MV4-11) | IC50 [5]
1 | CN(C)c1nc2c(Br)c(Br)c(Br)c(Br)c2[nH]1 [DMAT, reference compound] | 8.91 µM | >10 µM | 3.15 µM | >10 µM |  |  | 
2 | CN1CCN(c2nc3c(Br)c(Br)c(Br)c(Br)c3[nH]2)CC1 [Compound 21, 4,5,6,7-tetrabromo-2-(4-methylpiperazin-1-yl)-1H-benzo[d]imidazole] |  | >10 µM |  | >10 µM | 1.61 µM | 3.78 µM | 
3 | Brc1c(Br)c(Br)c2[nH]c(NCCN3CCOCC3)nc2c1Br [Compound 16, 4,5,6,7-tetrabromo-N-(2-morpholinoethyl)-1H-benzo[d]imidazol-2-amine] |  | >10 µM |  | >10 µM | 4.66 µM | 2.17 µM | 
4 | CN(C)c1nc2c(Br)c(Br)c(Br)c(Br)c2n1CC(=O)O [Compound K66, reference compound] | >10 µM |  | >10 µM | >10 µM |  |  | >10 µM
5 | Brc1c(Br)c(Br)c2[nH]nnc2c1Br [TBB, reference compound] | >10 µM |  | >10 µM | >10 µM |  |  | >10 µM
6 | Brc1c(Br)c(Br)c2c(Br)n[nH]c2c1Br [Compound K64, reference compound] | >10 µM |  | >10 µM | >10 µM |  |  | >10 µM
7 | NCCCNc1nc2c(Br)c(Br)c(Br)c(Br)c2[nH]1 [Compound 11, N-(3-aminopropyl)-4,5,6,7-tetrabromo-1H-benzo[d]imidazol-2-amine] | 7.85 µM | 6.12 µM |  | 7.32 µM | 1.37 µM | 1.78 µM | 
8 | Brc1c(Br)c(Br)c2[nH]c(NCCN3CCCCC3)nc2c1Br [Compound 13, 4,5,6,7-tetrabromo-N-(2-(piperidin-1-yl)ethyl)-1H-benzo[d]imidazol-2-amine] | 4.37 µM | 3.29 µM |  | 5.19 µM | 2.18 µM | 3.16 µM | 
9 | Brc1c(Br)c(Br)c2[nH]c(N3CCNCC3)nc2c1Br [Compound 20, 4,5,6,7-tetrabromo-2-(piperazin-1-yl)-1H-benzo[d]imidazole] | 4.49 µM | 7.88 µM |  | 6.61 µM | 1.59 µM | 0.79 µM | 
10 | Brc1c(Br)c(Br)c2[nH]c(NCCN3CCCC3)nc2c1Br [Compound 14, 4,5,6,7-tetrabromo-N-(2-(pyrrolidin-1-yl)ethyl)-1H-benzo[d]imidazol-2-amine] | 3.35 µM | 2.04 µM |  | 5.47 µM | 1.45 µM | 1.29 µM | 
11 | Brc1c(Br)c(Br)c2[nH]cnc2c1Br [TBI, reference compound] | >10 µM |  | >10 µM | >10 µM |  |  | 9.72 µM
